Measurements taken from patent US20040151785A1, “Method for treating insulin resistance through hepatic nitric oxide” (DiaMedica Inc., priority 1998, published 2004).
Where two headings read alike, the source gives them in different places.

Legend:
rats [1] = test: Rapid insulin sensitivity test (RIST), modified euglycemic clamp, in anesthetized rats; assay type: in vivo, rat; details: for inhibition at 50 mg/kg: Rattus norvegicus, iv
Description: Surgical preparation. The left jugular vein was cannulated for glucose infusion. Spontaneous respiration was allowed through a tracheal tube. The blood samples (25 μl) were obtained through a right femoral arterial-venous loop (30). The right femoral artery was cannulated with the arterial side of the loop. The right femoral vein was cannulated with the venous side of the arterial-venous loop. Arterial blood pressure was monitored via the arterial-venous loop by clamping the silicon sleeve on the venous side of the loop. One of the advantages of using this loop is that blood samples can be taken directly from a moving stream of blood with no need to wash or flush sampling catheters. The arterial blood continuously flows through the loop into the venous side. Intravenous infusions, except glucose, were given through the venous side of the loop.

cats = details: cited from earlier work
rats [2] = test: Arterial blood pressure monitored via arterial-venous loop during RIST experiments; assay type: in vivo, rat; details: after atropine, group given intravenous L-NAME 1.0 mg/kg
Description: Surgical preparation. The left jugular vein was cannulated for glucose infusion. Spontaneous respiration was allowed through a tracheal tube. The blood samples (25 μl) were obtained through a right femoral arterial-venous loop (30). The right femoral artery was cannulated with the arterial side of the loop. The right femoral vein was cannulated with the venous side of the arterial-venous loop. Arterial blood pressure was monitored via the arterial-venous loop by clamping the silicon sleeve on the venous side of the loop. One of the advantages of using this loop is that blood samples can be taken directly from a moving stream of blood with no need to wash or flush sampling catheters. The arterial blood continuously flows through the loop into the venous side. Intravenous infusions, except glucose, were given through the venous side of the loop. After laparotomy, the portal vein was cannulated with a 24G (OPTIVA™, Johnson & Johnson Medical Inc.) intravenous catheter for intraportal drug administration.

N=C(N)NCCC[C@H](N)C(=O)O [L-arginine]
inhibition at 50 mg/kg (rats [1]; read-out: inhibition of control RIST): 53.8 ± 7.1% | inhibition at 50 mg/kg (rats [1]; read-out: inhibition of the control response): 48.8 ± 8.2%

[NH-]c1c[n+](N2CCOCC2)no1 [SIN-1, 3-morpholinosyndnonimine]
inhibition of the control RIST remaining (rats [1]; SIN-1 5.0 mg/kg intraportal after intraportal L-NMMA 0.73 mg/kg, n=5): 24.0±11.6% | inhibition of the control RIST remaining (rats [1]; SIN-1 5.0 mg/kg intravenous after intraportal L-NMMA 0.73 mg/kg, n=4): 59.0±7.2% | inhibition of the control RIST remaining (rats [1]; SIN-1 10.0 mg/kg intraportal after intraportal L-NMMA 0.73 mg/kg, n=5): 0.6±5.8% | inhibition of the control RIST remaining (rats [1]; SIN-1 10.0 mg/kg intraportal after surgical denervation of the hepatic anterior plexus, n=6): 3.8±10.4%

COc1ccccc1CNCCCCCCNCCCCCCCCNCCCCCCNCc1ccccc1OC [methoctramine]
dose required to produce a full / similar degree of insulin resistance (cats): 10^−8 μmol/kg

CN1[C@@H]2CC[C@H]1C[C@@H](OC(=O)C(CO)c1ccccc1)C2 (stereo partly drawn) [atropine]
blood pressure (rats [2]): 93.0±8.6 mmHg

CN1CCN(CC(=O)N2c3ccccc3C(=O)Nc3cccnc32)CC1 [parenzepine]
dose achieving a similar degree of insulin resistance (cats): 10^−7 mmol/kg
